# Assay results taken from patent US8722663B2, “Di-substituted pyridine derivatives as anticancers” (Otsuka Pharmaceutical Co., Ltd., priority 2010, dated 2014).
# Structures can show the parent of a compound that is named as a salt.
# Assays:
# [1] = tested on: human hepatic cancer cell line (HuH-7); assay: Growth inhibition of HuH-7 cells, sulforhodamine B method; format: cell-based; details: 5 days with test compound
# Method: (§1) Growth inhibition of a human breast cancer cell line (MDA-MB-468) was determined by the sulforhodamine B method based on the method of Skehan P. et al. (J Natl Cancer Inst. 1990 Jul. 4; 82(13): 1107-12). In the study, MDA-MB-468 cells were seeded on DMEM medium containing 10% fetal bovine serum in a 96-well microplate. After 24-h incubation at 37° C. in the presence of 5% carbon dioxide, the test compound was added and the cells were incubated for another 5 days. After incubation, a trichloroacetic acid solution was added to yield the final concentration of 10% and the cells were left to stand at 4° C. for 1 hour to fix. Then, the cells were washed with water to remove the medium and trichloroacetic acid and dried in the air. The dried cells were stored at 4° C. until they were stained with sulforhodamine B. To each well, 1% acetic acid solution containing 0.4% sulforhodamine B was added and left to stand for 20 to 30 minutes at room temperature. After discarding the supernatant, each well was washed with 1% acetic acid solution, and 10 mM Tris([…]) solution was added while stirring to elute the dye taken into the cells. Then, the optical density was determined at the measurement wavelength of 492 nm and the reference wavelength of 690 nm, and the difference was calculated. The cell growth activity in each well was defined as the value determined by subtracting the OD in the control well not containing cells (the difference in absorbance between 492 nm and 690 nm) from that in the test well.
# (§2) The 50% inhibitory concentration (IC50 (nM)) of the test compound was determined by comparing the cell growth activity in the well containing the test compound with that of the control not containing the test compound.
# The growth inhibition on a human hepatic cancer cell line (HuH-7) was also determined by the above method.
# [2] = tested on: human breast cancer cell line (MDA-MB-468); assay: Growth inhibition of MDA-MB-468 cells, sulforhodamine B method; format: cell-based; details: 120 h, 5 days with test compound
# Method: as §1, §2
"IC50 ([1]; Homo sapiens, 120 h) [nM]",melting point [°C],IC50 [2] [nM],IC50 [1] [nM],SMILES
< 10,228 to 228.9,–,–,"COc1ccc(Oc2ccc3cc(CN4CCN(C(=O)/C=C/c5cc(C)c(Oc6ccc(OCc7ccccc7Cl)cn6)c(Cl)c5)CC4)ccc3n2)cc1.Cl [Example 675, (E)-3-[3-Chloro-4-({5-[(2-chlorobenzyl)oxy]pyridin-2-yl}oxy)-5-methylphenyl]-1-(4-{[2-(4-methoxyphenoxy)quinolin-6-yl]methyl}piperazin-1-yl)prop-2-en-1-one hydrochloride]"
< 10,203.4 to 205.7,–,–,"COc1cc(/C=C/C(=O)N2CCN(Cc3ccc(CCOc4ccc(C)cc4)cc3)CC2)ccc1Oc1ccc(OCc2ccccc2Cl)cn1.Cl [Example 482, (E)-3-[4-({5-[(2-Chlorobenzyl)oxy]pyridin-2-yl}oxy)-3-methoxyphenyl]-1-(4-{4-[2-(4-methylphenoxy)ethyl]benzyl}piperazin-1-yl)prop-2-en-1-one hydrochloride]"
< 10,–,–,–,"Cc1ccc(OC/C=C/c2ccc(CN3CCN(C(=O)/C=C/c4cc(C)c(Oc5ccc(OCc6ccc(F)cc6)cn5)c(C)c4)CC3)cc2C)cc1 [Example 407, (2E)-3-[4-({5-[(4-fluorobenzyl)oxy]pyridin-2-yl}oxy)-3,5-dimethylphenyl]-1-(4-{3-methyl-4-[(1E)-3-(4-methylphenoxy)prop-1-en-1-yl]benzyl}piperazin-1-yl)prop-2-en-1-one]"
< 10,–,–,–,"Cc1cc(/C=C/C(=O)N2CCN(Cc3ccc(CCOCc4ccc(Cl)cc4)cc3)CC2)cc(C)c1Oc1ccc(OCc2ccncc2)cn1 [Example 384, (E)-1-[4-(4-{2-[(4-chlorobenzyl)oxy]ethyl}benzyl)piperazin-1-yl]-3-(3,5-dimethyl-4-{[5-(pyridin-4-ylmethoxy)pyridin-2-yl]oxy}phenyl)prop-2-en-1-one]"
< 10,–,–,–,"COc1ccc(CCOc2ccc(CN3CCN(C(=O)/C=C/c4cc(C)c(Oc5ccc(OCc6ccc(C(F)(F)F)cc6)cn5)c(Cl)c4)CC3)cc2)cc1 [Example 688, (E)-3-{3-Chloro-5-methyl-4-[(5-{[4-(trifluoromethyl)benzyl]oxy}pyridin-2-yl)oxy]phenyl}-1-(4-{4-[2-(4-methoxyphenyl)ethoxy]benzyl}piperazin-1-yl)prop-2-en-1-one hydrochloride]"
–,156.5 to 158.2,< 10,–,"Br.C/C(=C\C(=O)N1CCN(Cc2ccc(CCOc3ccc(C)cc3)cc2)CC1)c1cc(C)c(Oc2ccc(OCc3ccc(C)cc3)cn2)c(Cl)c1 [Example 708, (E)-3-[3-Chloro-5-methyl-4-({5-[(4-methylbenzyl)oxy]pyridin-2-yl}oxy)phenyl]-1-(4-{4-[2-(4-methylphenoxy)ethyl]benzyl}piperazin-1-yl)but-2-en-1-one hydrobromide]"
–,218 to 220.5,< 10,–,"Cc1cc(/C=C/C(=O)N2CCN(Cc3ccc(COc4ccc(F)cc4)c(F)c3)CC2)cc(Cl)c1Oc1ccc(OCc2ccc(C#N)cc2)cn1.Cl [Example 641, 4-{[(6-{2-Chloro-4-[(E)-3-(4-{3-fluoro-4-[(4-fluorophenoxy)methyl]benzyl}piperazin-1-yl)-3-oxoprop-1-en-1-yl]-6-methylphenoxy}pyridin-3-yl)oxy]methyl}benzonitrile hydrochloride]"
< 10,201.5 to 202,–,–,"COc1cccc(OCCc2ccc(CN3CCN(C(=O)/C=C/c4ccc(Oc5ccc(OCc6ccc(F)cc6)cn5)c(Cl)c4)CC3)cc2)c1.Cl [Example 757, (E)-3-[3-chloro-4-({5-[(4-fluorobenzyl)oxy]pyridin-2-yl}oxy)phenyl]-1-(4-{4-[2-(3-methoxyphenoxy)ethyl]benzyl}piperazin-1-yl)prop-2-en-1-one hydrochloride]"
< 10,216.2 to 219.2,–,–,"Cc1cc(/C=C/C(=O)N2CCN(Cc3ccc(COc4ccc(OC(C)C)cc4)cc3)CC2)cc(C)c1Oc1ccc(OCc2ccc(C#N)cc2)cn1.Cl [Example 647, 4-({[6-(2,6-Dimethyl-4-{(E)-3-oxo-3-[4-(4-{[4-(propan-2-yloxy)phenoxy]methyl}benzyl)-piperazin-1-yl]prop-1-en-1-yl}phenoxy)pyridin-3-yl]oxy}methyl)benzonitrile hydrochloride]"
–,–,–,< 10,"COc1ccc(OCCc2ccc(CN3CCN(C(=O)/C=C/c4cc(C)c(Oc5ccc(OCc6ccc(C)c(F)c6)cn5)c(Cl)c4)CC3)cc2)cc1 [Example 428, (E)-3-[3-Chloro-4-({5-[3-fluoro-4-methylbenzyl)oxy]pyridin-2-yl}oxy)-5-methylphenyl]-1-(4-{4-[2-(4-methoxyphenoxy)ethyl]benzyl}piperazin-1-yl)prop-2-en-1-one hydrochloride]"
< 10,–,–,–,"CC(C)c1ccc(OCCc2ccc(CN3CCN(C(=O)c4ccc5cc(Oc6ccc(OCc7cccc(F)c7F)cn6)ccc5c4)CC3)cc2)cc1 [Example 542, [6-({5-[(2,3-Difluorobenzyl)oxy]pyridin-2-yl}oxy)naphthalen-2-yl][4-(4-{2-[4-(propan-2-yl)phenoxy]ethyl}benzyl)piperazin-1-yl]methanone hydrochloride]"
–,220 to 220.9,< 10,–,"Cc1cc(/C=C/C(=O)N2CCN(Cc3ccc(Cl)cc3)CC2)cc(Cl)c1Oc1ccc(OCCc2ccc(Cl)cc2)cn1.Cl [Example 765, (E)-1-[4-(4-Chlorobenzyl)piperazin-1-yl]-3-[3-chloro-4-({5-[2-(4-chlorophenyl)ethoxy]pyridin-2-yl}oxy)-5-methylphenyl]prop-2-en-1-one hydrochloride]"
–,141.8 to 141.9,< 10,–,"Cc1cc(/C=C/C(=O)N2CCN(Cc3ccc(COc4ccc(OC(C)C)cc4)c(F)c3)CC2)cc(Cl)c1Oc1ccc(OCc2ccc(C#N)cc2)cn1.Cl [Example 640, 4-({[6-(2-Chloro-4-{(E)-3-[4-(3-fluoro-4-{[4-(propan-2-yloxy)phenoxy]methyl}benzyl)-piperazin-1-yl]-3-oxoprop-1-en-1-yl}-6-methylphenoxy)pyridin-3-yl]oxy}methyl)benzonitrile hydrochloride]"
–,240.5 to 243.5,< 10,–,"Cc1cc(/C=C/C(=O)N2CCN(Cc3ccc(CCOc4ccc(Cl)cc4)c(F)c3)CC2)cc(C)c1Oc1ccc(OCc2ccc(C#N)cc2)cn1.Cl [Example 614, 4-{[(6-{4-[(E)-3-(4-{4-[2-(4-Chlorophenoxy)ethyl]-3-fluorobenzyl}piperazin-1-yl)-3-oxoprop-1-en-1-yl]-2,6-dimethylphenoxy}pyridin-3-yl)oxy]methyl}benzonitrile hydrochloride]"
–,205.5 to 206.5,< 10,–,"Br.C/C(C(=O)N1CCN(Cc2ccc(CCOc3ccc(C)cc3)cc2)CC1)=C(/C)c1cc(C)c(Oc2ccc(OCc3ccc(C)cc3)cn2)c(Cl)c1 [Example 706, (E)-3-[3-Chloro-5-methyl-4-({5-[(4-methylbenzyl)oxy]pyridin-2-yl}oxy)phenyl]-2-methyl-1-(4-{4-[2-(4-methylphenoxy)ethyl]benzyl}piperazin-1-yl)but-2-en-1-one hydrobromide]"
–,223.1 to 224,< 10,–,"Cc1ccc(CN2CCN(C(=O)/C=C/c3cc(C)c(Oc4ccc(OCc5ccc(Cl)cc5)cn4)c(Cl)c3)CC2)cc1.Cl [Example 781, (E)-3-[3-Chloro-4-({5-[(4-chlorobenzyl)oxy]pyridin-2-yl}oxy)-5-methylphenyl]-1-[4-(4-methylbenzyl)piperazin-1-yl]prop-2-en-1-one hydrochloride]"
< 10,–,–,–,"Cc1ccc(CN2CCN(C(=O)/C=C/c3cc(C)c(Oc4ccc(OCc5ccc(C(C)C)cc5)cn4)c(Cl)c3)CC2)cc1 [Example 358, (E)-3-{3-Chloro-5-methyl-4-[(5-{[4-(propan-2-yl)benzyl]oxy}pyridin-2-yl)oxy]phenyl}-1-[4-(4-methylbenzyl)piperazin-1-yl]prop-2-en-1-one]"
< 10,–,–,–,"CCOc1ccc(OCCOc2ccc(CN3CCN(C(=O)/C=C/c4cc(C)c(Oc5ccc(OCc6ccc(C)cc6)cn5)c(Cl)c4)CC3)cc2)cc1 [Example 315, (E)-3-[3-Chloro-5-methyl-4-({5-[(4-methylbenzyl)oxy]pyridin-2-yl}oxy)phenyl]-1-(4-{4-[2-(4-ethoxyphenoxy)ethoxy]benzyl}piperazin-1-yl)prop-2-en-1-one]"
< 10,–,–,–,"COc1ccc(OCCc2ccc(CN3CCN(C(=O)/C=C/c4cc(C)c(Oc5ccc(OCc6ccc(C#N)cc6)cn5)c(C)c4)CCO3)cc2)cc1 [Example 402, 4-{[(6-{4-[(E)-3-(2-{4-[2-(4-Methoxyphenoxy)ethyl]benzyl}-1,2,5-oxadiazepan-5-yl)-3-oxoprop-1-en-1-yl]-2,6-dimethylphenoxy}pyridin-3-yl)oxy]methyl}benzonitrile]"
< 10,–,–,–,"C=Cc1ccc(CN2CCN(C(=O)/C=C/c3cc(C)c(Oc4ccc(OCc5ccccc5Cl)cn4)c(Cl)c3)CC2)cc1 [Example 391, (E)-3-[3-chloro-4-({5-[(2-chlorobenzyl)oxy]pyridin-2-yl}oxy)-5-methylphenyl]-1-[4-(4-ethenylbenzyl)-piperazin-1-yl]prop-2-en-1-one]"
